Assays:
PDGFR-WT [1] = biological target: T1, PDGFR-WT (Homo sapiens, UniProt P09619); assay: PDGFRβ signaling in HEK293 cells (Western blot: PDGFRβ autophosphorylation, Shp2 phosphorylation); type: cell-based; design: expressed in transfected cells; host or cells: HEK293; conditions: 20 ng/ml PDGF
Protocol: FIG. 5 illustrates a Western-blot analysis result of Ex 1 (a compound of the present invention), in relation to inhibit PDGFRβ signaling in HEK293 cells expressing PDGFRβ.
Human Embryonic kidney cells (HEK293) were constructed to express human PDGFRWT under the control of constitutive CMV promoter. Cells were grown in the presence of 20 ng/ml PDGF (the ligand for the PDGFRβ) to activate the PDGFRβ. Different concentration of Ex 1 were added to study its effect on the PDGFRβ-mediated signaling. Autophosphorylation of PDGFRβ and Shp2 phosphorylation were monitored by Western blotting were used as the markers for PDGFRβ signaling. B Actin was used as an internal control.
Target sequence in this assay (P09619 33-1106): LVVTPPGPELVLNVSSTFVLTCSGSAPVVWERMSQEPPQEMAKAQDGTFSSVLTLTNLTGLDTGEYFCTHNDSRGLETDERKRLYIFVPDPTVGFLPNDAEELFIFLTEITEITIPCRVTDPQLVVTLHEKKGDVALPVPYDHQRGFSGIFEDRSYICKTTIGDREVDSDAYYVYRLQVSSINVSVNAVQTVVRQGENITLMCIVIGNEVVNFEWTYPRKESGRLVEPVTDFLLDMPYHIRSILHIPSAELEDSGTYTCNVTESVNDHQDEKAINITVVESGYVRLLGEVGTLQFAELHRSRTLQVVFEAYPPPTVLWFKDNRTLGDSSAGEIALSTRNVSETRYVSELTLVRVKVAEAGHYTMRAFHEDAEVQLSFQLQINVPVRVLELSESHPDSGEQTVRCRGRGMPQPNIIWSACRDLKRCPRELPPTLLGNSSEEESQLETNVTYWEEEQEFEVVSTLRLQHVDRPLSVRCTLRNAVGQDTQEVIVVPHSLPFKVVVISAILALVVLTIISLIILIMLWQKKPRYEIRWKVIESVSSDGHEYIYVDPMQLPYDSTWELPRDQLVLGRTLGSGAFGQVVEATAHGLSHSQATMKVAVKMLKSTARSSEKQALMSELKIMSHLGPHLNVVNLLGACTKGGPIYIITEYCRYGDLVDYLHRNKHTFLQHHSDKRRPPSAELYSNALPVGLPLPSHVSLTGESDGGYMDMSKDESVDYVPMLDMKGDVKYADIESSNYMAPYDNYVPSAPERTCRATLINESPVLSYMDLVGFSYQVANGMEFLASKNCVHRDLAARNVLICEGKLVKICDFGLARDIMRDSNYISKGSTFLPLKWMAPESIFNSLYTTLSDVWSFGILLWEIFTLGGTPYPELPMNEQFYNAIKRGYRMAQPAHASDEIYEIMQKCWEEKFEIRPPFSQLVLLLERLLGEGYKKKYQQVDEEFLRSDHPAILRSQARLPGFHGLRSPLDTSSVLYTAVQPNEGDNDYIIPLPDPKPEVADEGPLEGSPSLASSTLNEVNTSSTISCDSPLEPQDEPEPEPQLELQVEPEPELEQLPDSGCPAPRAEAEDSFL

human PDGFRβWT = assay: Humanized yeast screen: prevention of PDGFR-induced death of yeast cells; conditions: 10 μM; compared to DMSO or Gleevec
Protocol: A humanized yeast screen was performed. Yeast cells carrying stably integrated GAL-PDGFRβ were first grown in YEP+raff medium and then seeded into fresh YEP+raff+GAL medium to induce expression of human PDGFRβWT.

[2] = system: Choroid membrane preparations; assay: Ex vivo organoid model of angiogenesis (choroid membrane preparations in Matrigel); type: cell-based, mice; conditions: mouse choroid in Matrigel
Protocol: Choroid membrane preparations isolated from young mice were cultured in Matrigel. Matrigel containing these preparations were layered with growth medium containing various concentrations of Ex 2 and Ex 3. The ‘blood vessel’ growth was monitored and quantified using a specialized image analysis software.
FIG. 10 illustrates the efficacy of the compounds of the present invention in an ex vivo organoid model of angiogenesis. Compounds of the present invention show anti-angiogenesis in organoid model.

PDGFR-WT [3] = biological target: T1, PDGFR-WT; assay: PDGFRβ-dependent growth of Ba/F3 cells; type: cell-based; conditions: inhibition of PDGFRβ-dependent growth of Ba/F3 cells; read-out: effective concentration-50 (EC50) against PDGFR-WT
Protocol: Based on in silico modelling and simulation, different derivatives of the diphenyl oxyacetamide based compounds (formula (I)) were synthesized. The potency of the compounds were measured in terms of its ability to inhibit the PDGFRβ-dependent growth of Ba/F3 cells.
FIG. 6 illustrates work flow for synthesis of G6 derivatives Effective Concentration-50 (EC50) as determined using Ba/F3 cell.
Target sequence in this assay (P09619 554-1106 limits assumed, change not shown): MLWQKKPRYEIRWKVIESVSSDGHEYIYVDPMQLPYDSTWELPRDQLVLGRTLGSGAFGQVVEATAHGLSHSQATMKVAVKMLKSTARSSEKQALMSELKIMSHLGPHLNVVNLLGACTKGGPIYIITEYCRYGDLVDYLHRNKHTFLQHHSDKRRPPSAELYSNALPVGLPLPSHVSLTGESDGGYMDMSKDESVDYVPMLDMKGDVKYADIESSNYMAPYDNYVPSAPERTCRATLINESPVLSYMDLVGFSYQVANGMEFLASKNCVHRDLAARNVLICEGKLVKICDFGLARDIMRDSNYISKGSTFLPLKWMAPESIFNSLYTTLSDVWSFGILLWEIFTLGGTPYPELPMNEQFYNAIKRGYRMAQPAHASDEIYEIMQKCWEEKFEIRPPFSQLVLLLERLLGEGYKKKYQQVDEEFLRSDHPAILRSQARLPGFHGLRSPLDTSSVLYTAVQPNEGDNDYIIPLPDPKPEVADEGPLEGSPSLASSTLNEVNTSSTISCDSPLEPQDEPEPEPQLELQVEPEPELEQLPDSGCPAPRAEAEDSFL

human PDGFRβ = biological target: T2, human PDGFRβ (Homo sapiens, UniProt P09619); assay: PDGFRβ signaling in Ba/F3 cells (Western blot); type: cell-based; conditions: BaF3 cells expressing PDGFRβ, PDGF-induced
T2 construct: expressed in transfected cells; host or cells: Ba/F3
T2 sequence (P09619 33-1106): as the sequence (P09619 33-1106) above
Protocol: FIG. 7 illustrates a Western-blot analysis result of Ex 2 and Ex 3 (compounds of the present invention) to inhibit PDGFRβ signaling in BaF3 cells expressing PDGFRβ.
Ba/F3 cells were constructed to express human PDGFRβ under the control of CMV promoter. The PDGFRβ signaling was induced by addition of the ligand PDGF. The effect of […] and Ex 3 was added to the cell cultures at different concentrations to determine their efficacy to inhibit the PDGFRβ signaling as reflected by the inhibition of PDGFRβ autophosphorylation and the phosphorylation of Shp2, a downstream effector of the PDGFRβ signal pathway.
FIG. 7 illustrates a Western-blot analysis result, illustrating the efficacy of compounds of the present invention to inhibit PDGFRβ signaling in BaF3 cells expressing PDGFRβ.

[4] = system: Choroid Neo-Vascularization; assay: Laser CNV mouse model for wet-AMD; type: in vivo; conditions: injection into one eye, imaged for two weeks
Protocol: In vivo testing of Ex 3 in CNV (Choroid Neo-Vascularization)-laser mouse model was performed. Eyes of young mice were treated with laser to create choroid damage which results in the leakage of blood vessels (seen as light areas of FIG. 11). In each mouse, one eye was injected with a predetermined amount of Ex 3 while the other eye remained untreated to serve as ‘treatment(−)’ control. Mouse eyes were imaged intermittently for two weeks. The efficacy of the compound Ex 3 is indicated by its ability to prevent the leakage of the blood vessels (reduction or disappearance of the bright green areas).
FIG. 11 illustrates the efficacy of a compound of the present invention in Laser CNV mouse model for wet-AMD.

Structure (SMILES) | inhibition of PDGFRWT-mediated signaling (PDGFR-WT [1]) | cell growth (OD reading) of humanized yeast expressing PDGFRβ (human PDGFRβWT) | anti-angiogenesis efficacy ('blood vessel' growth) [2] | EC50 (PDGFR-WT [3]) [nM] | activity against PDGFRβ-WT signaling (human PDGFRβ) | efficacy in preventing leakage of blood vessels [4]
Cc1ccc(NC(=O)COc2ccc(-n3cnnn3)cc2)cc1C [Ex 1, N-(3,4-dimethylphenyl)-2-[4-(tetrazol-1-yl)phenoxy]acetamide] | efficiently inhibits the PDGFRWT-mediated signaling | allows cell-growth more efficiently compared to DMSO or Gleevec | – | – | – | –
Cc1ccc(NC(=O)COc2ccc(-c3cnc4ccccn34)cc2)cc1C [Ex 2, N-(3,4-dimethylphenyl)-2-[4-imidazo[1,2-a]pyridin-3-ylphenoxy]acetamide] | – | – | better anti-angiogenesis efficacy then Ex 3 | 10 | show activities against PDGFRβ-WT | –
Cc1ccc(NC(=O)COc2ccc(-c3cnc4ccccn34)cc2)cc1C(F)(F)F [Ex 3, N-[4-methyl-3-(trifluoromethyl)phenyl]-2-[4-imidazo[1,2-a]pyridin-3-ylphenoxy]acetamide] | – | – | – | 10 | show activities against PDGFRβ-WT | efficacy

Reference: US20210061800A1, “COMPOUNDS FOR TREATING EYE DISEASES AND METHODS THEREOF” (Agency for Science, Technology and Research, priority 2017, published 2021)
